Measured values from patent US20180333418A1, “USE OF PAN FGFR INHIBITORS AND METHOD OF IDENTIFYING PATIENTS WITH CANCER ELIGIBLE FOR TREATMENT WITH A PAN FGFR INHIBITOR” (BAYER PHARMA AKTIENGESELLSCHAFT, priority 2014, published 2018).

Key:
LU1901 lung tumor model = assay: LU1901 xenograft in vivo efficacy; parameters: species or system nu/nu mice; conditions: tumor weight reduction
Protocol: (§1) For all other tumors as listed in table 2 & 3 the experiments were carried out in an analogous way as described above.

[1] = test system: OVXF1023 ovarian carcinoma; assay: OVXF1023 patient-derived xenograft study; format: in vivo, nu/nu mice
Description: Female, 5-7 weeks old immunocompromised nu/nu mice (18-24 g) from Janvier (France) were used for the patient-derived OVX1023 ovarian carcinoma study.
The animals were housed in individually ventilated cages ([…] Sealsafe™-IVC-System, […], Hohenpeissenberg, Germany) and were kept under a 14L:10D artificial light cycle. The animals were monitored twice daily. Depending on group size, either type III cages or type II long cages were used. Dust-free bedding consisting of aspen wood chips with approximate dimensions of 5×5×1 mm (ABEDD®—LAB & VET Service GmbH, Vienna, Austria, Product Code: LTE E-001) were used. Additional nesting material was routinely added. […]
All experiments were approved by the local authorities, and were conducted according to all applicable international, national and local laws and guidelines. […] Animals were routinely monitored twice daily on working days and daily on weekends and public holidays. […]
Tumor size was measured twice weekly in two dimensions using a caliper, and the volume was expressed in mm^3 using the formula: V=0.5a×b^2 where a and b are the long and short diameters of the tumor, respectively. […] T-C was calculated with T as the time (in days) required for the mean tumor size of the treatment group to reach a predetermined size (e.g. 1000 mm^3), and C was the time (in days) for the mean tumor size of the control group to reach the same size. […]

H520 lung tumor model = assay: H520 xenograft in vivo efficacy; parameters: species or system nu/nu mice; conditions: tumor weight reduction
Protocol: as §1

H1581 lung tumor model = assay: H1581 xenograft in vivo efficacy; parameters: species or system nu/nu mice; conditions: tumor weight reduction
Protocol: as §1

`COCc1c(-c2cc3cc(C)cc(OC)c3s2)c2c(N)ncnn2c1CN1CCNC(=O)C1` [compound of formula (I)] was tested, and the in vivo efficacy (LU1901 lung tumor model) was “no (All models in which the tumor weight was reduced upon treatment with compounds of formula (I) by at least 50% were considered to be efficacious in vivo.)”, the “T/C at day 38 post treatment start” value ([1]; OVXF1023, 35 mg/kg 2QD 5 days on- 2 days off po, treated mean/vehicle mean tumor volume) was 0.2 and the in vivo efficacy ([1]; OVXF1023 ovarian model, tumor weight reduction) was “yes (All models in which the tumor weight was reduced upon treatment with compounds of formula (I) by at least 50% were considered to be efficacious in vivo.)”. For the same molecule, the in vivo efficacy (H520 lung tumor model) was “no (All models in which the tumor weight was reduced upon treatment with compounds of formula (I) by at least 50% were considered to be efficacious in vivo.)” and the in vivo efficacy (H1581 lung tumor model) was “yes (All models in which the tumor weight was reduced upon treatment with compounds of formula (I) by at least 50% were considered to be efficacious in vivo.)”.
